Measurements published in patent publication US11806346B2, “HTT modulators for treating Huntington's disease” (CHDI Foundation, Inc., priority 2020, dated 2023).

Tested on: tHTT (total HTT protein)
Assay: Time-resolved FRET assay, total huntingtin (tHTT) detection in cell lysates
Assay type: cell-based, human
Conditions: GEN020 hESCs (mutant 48 Q repeat allele), compounds added for 48 hours, TR-FRET on lysate; read-out: tHTT EC50
Summary of the method: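 TR-FRET readout on cell lysates, with the donor/acceptor ratio reflecting relative total HTT.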

Row | Structure (SMILES) | EC50
1 | Cc1cn2cc(NC(=O)c3cnc(N4CC(CN5CC[C@H](F)C5)C4)cn3)cc(Cl)c2n1 [Example 342] | 100 to 500 nM
2 | Cc1cn2cc(NC(=O)c3cnc(N4CC[C@@H](NC5CC5)C4=O)cn3)cc(F)c2n1 [Example 348, (R)-5-(3-(cyclopropylamino)-2-oxopyrrolidin-1-yl)-N-(8-fluoro-2-methylimidazo[1,2-a]pyridin-6-yl)pyrazine-2-carboxamide] | 100 to 500 nM
3 | CNCC1CN(c2cnc(C(=O)Nc3cc(F)c4nc(C)oc4c3)cn2)C1 [Example 349, N-(4-fluoro-2-methylbenzo[d]oxazol-6-yl)-5-(3-((methylamino)methyl)azetidin-1-yl)pyrazine-2-carboxamide] | 100 to 500 nM
4 | COc1cc2nn(C)cc2cc1NC(=O)c1cnc(N2CC[C@@H](CNC3CC3)C2)cn1 [Example 351, (S)-5-(3-((cyclopropylamino)methyl)pyrrolidin-1-yl)-N-(6-methoxy-2-methyl-2H-indazol-5-yl)pyrazine-2-carboxamide] | 100 to 500 nM
5 | Cc1cn2cc(NC(=O)c3cnc(N4C[C@H]5NCCO[C@@H]5C4)cn3)cc(F)c2n1 [Example 352, N-(8-fluoro-2-methylimidazo[1,2-a]pyridin-6-yl)-5-((4aR,7aR)-hexahydropyrrolo[3,4-b][1,4]oxazin-6(2H)-yl)pyrazine-2-carboxamide] | 500 to 1000 nM
6 | Cc1cn2cc(NC(=O)c3cnc(N(C)C4CC(C)(C)NC(C)(C)C4)cn3)cc(F)c2n1 [Example 353, N-(8-fluoro-2-methylimidazo[1,2-a]pyridin-6-yl)-5-(methyl(2,2,6,6-tetramethylpiperidin-4-yl)amino)pyrazine-2-carboxamide] | 100 to 500 nM
7 | Cc1cn2cc(NC(=O)c3cnc(C4=CCNCC4)cn3)cc(F)c2n1 [Example 358, N-(8-fluoro-2-methyl-imidazo[1,2-a]pyridin-6-yl)-5-(1,2,3,6-tetrahydropyridin-4-yl)pyrazine-2-carboxamide] | 100 to 500 nM
8 | COC1CN(CC2CN(c3cnc(C(=O)Nc4cn5cc(C)nc5c(C)n4)cn3)C2)C1 [Example 360, N-(2,8-dimethylimidazo[1,2-a]pyrazin-6-yl)-5-[3-[(3-methoxyazetidin-1-yl)methyl]azetidin-1-yl]pyrazine-2-carboxamide] | 100 to 500 nM
9 | Cc1cn2cc(NC(=O)c3cnc(N4CC(CNC5CC5)CC4C)cn3)nc(C)c2n1 (centres unmarked) [Example 362, 5-(4-((Cyclopropylamino)methyl)-2-methylpyrrolidin-1-yl)-N-(2,8-dimethylimidazo[1,2-a]pyrazin-6-yl)pyrazine-2-carboxamide] | 1000 to 10000 nM
10 | Cc1cn2cc(NC(=O)c3cnc(C#CCN(C)C)cn3)cc(F)c2n1 [Example 364, 5-[3-(Dimethylamino)prop-1-ynyl]-N-(8-fluoro-2-methyl-imidazo[1,2-a]pyridin-6-yl)pyrazine-2-carboxamide] | 1000 to 10000 nM
11 | Cc1cn2cc(NC(=O)c3cnc(O[C@@H]4CNC[C@@H]4F)cn3)cc(F)c2n1 [Example 366, N-(8-Fluoro-2-methylimidazo[1,2-a]pyridin-6-yl)-5-(((3R,4S)-4-fluoropyrrolidin-3-yl)oxy)pyrazine-2-carboxamide] | 1000 to 10000 nM

The next lines start with the values.

Row | EC50 | Structure (SMILES)
12 | 100 to 500 nM | Cc1nc2c(F)cc(NC(=O)c3cnc(N4CC[C@@H](N)C4)cn3)cc2o1 [Example 340]
13 | < 100 nM | Cc1cn2cc(NC(=O)c3cnc(N4CC[C@@H](NC5CC5)C4)cn3)cc(Cl)c2n1 [Example 341]
14 | 100 to 500 nM | Cc1cn2cc(NC(=O)c3cnc(N4CC(CN5CC6C[C@]6(F)C5)C4)cn3)cc(F)c2n1 (stereo partly drawn) [Example 343, N-(8-fluoro-2-methylimidazo[1,2-a]pyridin-6-yl)-5-(3-(((1R)-1-fluoro-3-azabicyclo[3.1.0]hexan-3-yl)methyl)azetidin-1-yl)pyrazine-2-carboxamide]
15 | < 100 nM | CCN[C@@H]1CCN(c2cnc(C(=O)Nc3cn4cc(C)nc4cc3OC)cn2)C1 [Example 345, (R)-5-(3-(ethylamino)pyrrolidin-1-yl)-N-(7-methoxy-2-methylimidazo[1,2-a]pyridin-6-yl)pyrazine-2-carboxamide]
16 | 100 to 500 nM | Cn1cc2cc(NC(=O)c3cnc(N4CC(CN5CC(F)C5)C4)cn3)cc(F)c2n1 [Example 350, N-(7-fluoro-2-methyl-2H-indazol-5-yl)-5-(3-((3-fluoroazetidin-1-yl)methyl)azetidin-1-yl)pyrazine-2-carboxamide]
17 | < 100 nM | CN[C@@H]1CCN(c2cnc(C(=O)Nc3cn4cc(C)nc4c(C)c3F)cn2)C1 [Example 354, N-(7-fluoro-2,8-dimethyl-imidazo[1,2-a]pyridin-6-yl)-5-[(3R)-3-(methylamino)pyrrolidin-1-yl]pyrazine-2-carboxamide]
18 | < 100 nM | Cc1cn2cc(NC(=O)c3cnc(N4CC(CNC5CC5)C4)cn3)c(F)c(C)c2n1 [Example 355, 5-[3-[(cyclopropylamino)methyl]azetidin-1-yl]-N-(7-fluoro-2,8-dimethyl-imidazo[1,2-a]pyridin-6-yl)pyrazine-2-carboxamide]
19 | < 100 nM | Cc1cn2cc(NC(=O)c3cnc(N4CC(CN5CC[C@@](C)(F)C5)C4)cn3)cc(F)c2n1 [Example 356, N-(8-fluoro-2-methyl-imidazo[1,2-a]pyridin-6-yl)-5-[3-[[(3R)-3-fluoro-3-methyl-pyrrolidin-1-yl]methyl]azetidin-1-yl]pyrazine-2-carboxamide]
20 | < 100 nM | Cc1cn2cc(NC(=O)c3cnc(N4CC(CN5CC[C@](C)(F)C5)C4)cn3)cc(F)c2n1 [Example 357]
21 | 100 to 500 nM | COc1nc(NC(=O)c2cnc(N3CC(CN4CC(OC)C4)C3)cn2)cn2cc(C)nc12 [Example 359, 5-[3-[(3-Methoxyazetidin-1-yl)methyl]azetidin-1-yl]-N-(8-methoxy-2-methyl-imidazo[1,2-a]pyrazin-6-yl)pyrazine-2-carboxamide]
22 | 100 to 500 nM | COc1nc(NC(=O)c2cnc(N3CC4NCCC43)cn2)cn2cc(C)nc12 (centres unmarked) [Example 361, 5-(2,6-Diazabicyclo[3.2.0]heptan-6-yl)-N-(8-methoxy-2-methyl-imidazo[1,2-a]pyrazin-6-yl)pyrazine-2-carboxamide]
23 | 1000 to 10000 nM | CN[C@@H]1CCN(c2cnc(C(=O)Nc3ccc4nc(C)oc4c3)cn2)C1 [Example 363, (R)-5-(3-(Methylamino)pyrrolidin-1-yl)-N-(2-methylbenzo[d]oxazol-6-yl)pyrazine-2-carboxamide]
24 | 1000 to 10000 nM | Cc1cn2cc(NC(=O)c3cnc(NCC4CCCN(C5CC5)C4)cn3)cc(F)c2n1 (centres unmarked) [Example 365, 5-(((1-Cyclopropylpiperidin-3-yl)methyl)amino)-N-(8-fluoro-2-methylimidazo[1,2-a]pyridin-6-yl)pyrazine-2-carboxamide]
25 | 1000 to 10000 nM | O=C(Nc1cc(F)c2nc(C(F)F)cn2c1)c1cnc(N2CC[C@@H](NC3CC3)C2)cn1 [Example 367, (R)-5-(3-(cyclopropylamino)pyrrolidin-1-yl)-N-(2-(difluoromethyl)-8-fluoroimidazo[1,2-a]pyridin-6-yl)pyrazine-2-carboxamide]

Same assay, conditions: read-out: tHTT EC50; GEN020 hESCs (mutant 48 Q repeat allele), compounds added for 48 hours, TR-FRET on lysate

Row | Structure (SMILES) | EC50
26 | Cc1cc2cc(NC(=O)c3cnc(N4CC(CNC5CC5)C4)cn3)cc(Cl)n2n1 [Example 344, N-(7-chloro-2-methylpyrazolo[1,5-a]pyridin-5-yl)-5-(3-((cyclopropylamino)methyl)azetidin-1-yl)pyrazine-2-carboxamide] | 100 to 500 nM
